Literature values in US20040166503A1, “Methods for gene expression profiling” (priority 2004, published 2004).

Columns and labels:
[1] = system: resistant HL60 human promyelocytic cell line; conditions: inhibition of glutathione synthesis by BSO
[2] = system: cancer cell lines and tumors; conditions: wide variety of cancer cell lines and tumors
[3] = system: M7609 xenografts expressing different levels of GST P1-1; conditions: murine xenografts of M7609; responses positively correlated with GST P1-1 expression
[4] = system: bone marrow stem cells and peripheral white blood cell
[5] = system: c-Jun N-terminal kinase (JNK); conditions: during TLK286 induced apoptosis
[6] = system: extracellular signal-regulated kinase (ERK); conditions: during TLK286 induced apoptosis
[7] = system: p38 kinase; conditions: during TLK286 induced apoptosis

Row | SMILES | effect on sensitivity of resistant cells to TLK286 [1] | cytotoxicity [2] | antitumor activity in vivo [3] | myelosuppressive effect (toxicity) [4] | JNK activation [5] | ERK activation [6] | p38 kinase activation [7]
1 | CCCCS(=N)(=O)CCC(N)C(=O)O (stereo not shown) [BSO] | increases the sensitivity |  |  |  |  |  | 
2 | N[C@@H](CCC(=O)N[C@@H](CS(=O)(=O)CCOP(=O)(N(CCCl)CCCl)N(CCCl)CCCl)C(=O)N[C@@H](C(=O)O)c1ccccc1)C(=O)O [TLK286, gamma-glutamyl-alpha-amino-beta(2-ethyl-N,N,N′,N-tetrakis(2-chloroethyl)phosphorodiamidate)-sulfonyl-propionyl-(R)-(−)phenylglycine] |  | cytotoxic | antitumor activity has also been observed | only mildly toxic | activated | not | not
